Assay results as given in ChEMBL document CHEMBL6087454, “Identification of Novel Organo-Se BTSA-Based Derivatives as Potent, Reversible, and Selective PPARγ Covalent Modulators for Antidiabetic Drug Discovery” (J Med Chem, 2025).
Activity calls are given as the source filed them. The rule behind the calls is not given here.

Key:
Mus musculus [1] = assay: Downregulation of PPAR-gamma protein expression in male db/db mouse liver at 2.5 to 10 mg/kg/day, ip administered for 4 weeks by Western blotting analysis; format: functional, organism-based; conditions: dose 2.5-10 mg/kg/day
Mus musculus [2] = assay: Downregulation of PPAR-gamma protein expression in male db/db mouse white adipose tissue at 2.5 to 10 mg/kg/day, ip administered for 4 weeks by Western blotting analysis; format: functional, organism-based; conditions: dose 2.5-10 mg/kg/day

Cc1ccc(S(=O)(=O)Oc2ccc(S3(=O)=N[Se]c4cc(OS(=O)(=O)c5ccc(C)cc5)ccc43)cc2)cc1 (configuration not stated)
Activity (Mus musculus [1]): inactive | Activity (Mus musculus [2]): Active
